In patent US20120283316A1, “Delivery of Therapeutic Agents Using Oligonucleotide-Modified Nanoparticles As Carriers” (priority 2009, published 2012):
Where two headings read alike, the source gives them in different places.

Legend:
[1] = tested on: MCF7 cells; assay: MTT assay (cytotoxicity) in MCF7 cells; assay type: cell-based; conditions: Homo sapiens
Description: (§1) MCF7, SKOV-3 and MES-SA/Dx5 cells were purchased from American Type Culture Collection (ATCC, Manassas, Va., USA). […] MCF7 cells were cultured in Eagle's Minimum Essential Medium (EMEM) supplemented with 10% fetal bovine serum (FBS) and 0.01 mg/ml bovine insulin. SKOV-3 and MES-SA/Dx5 cells were cultured using McCoy's 5A modified media supplemented with 10% FBS. All experiments were performed in the aforementioned cell-specific media in a 5% CO2 incubator at 37° C.
(§2) Following 24 hours of growth, media was replaced with 200 μL of corresponding sample solutions, which were freshly prepared at varying concentrations in complete cell culture media. Cells in media containing 10% FBS with nothing added were used as controls. After 12 hours or 48 hours of treatment, cells were rinsed and cultured with fresh medium containing 0.5 mg/mL of MTT for an additional 3 hours. Following careful aspiration of MTT solution and media after MTT incubation, 200 μL of MTT solubilization solution was added to each well and thoroughly mixed. The optical density at 570 nm was measured using a Safire microplate reader (Tecan Systems, Inc., San Jose, Calif.). Background absorbance at 690 nm was subtracted. Values were expressed as a percentage of the control (incubated with media alone). All conditions were done in sextuplicate in two independent experiments for each cell line.

[2] = tested on: SKOV-3 ovarian cancer cells; assay: MTT assay (cytotoxicity) in SKOV-3 cells; assay type: cell-based; conditions: Homo sapiens, SK-OV-3, paclitaxel-equivalent concentration
Description: MCF7, SKOV-3 and MES-SA/Dx5 cells were purchased from American Type Culture Collection (ATCC, Manassas, Va., USA). Media, Dulbecco's phosphate buffered saline (DPBS), and 0.25% trypsin/EDTA were purchased from Invitrogen (Carlsbad, Calif., USA). MCF7 cells were cultured in Eagle's Minimum Essential Medium (EMEM) supplemented with 10% fetal bovine serum (FBS) and 0.01 mg/ml bovine insulin. SKOV-3 and MES-SA/Dx5 cells were cultured using McCoy's 5A modified media supplemented with 10% FBS. All experiments were performed in the aforementioned cell-specific media in a 5% CO2 incubator at 37° C.
as §2, with “Briefly, cells were seeded on 96-well plates for 24 hours before the assay at a density of 1.5×10^4 cells/well. Following” for “Following”, “Following careful aspiration of MTT solution and media after MTT incubation, 200 μL of MTT solubilization solution was added to each well and thoroughly mixed.” left out, “All conditions were done in sextuplicate in two independent experiments for each cell line.” left out

[3] = tested on: MES-SA/Dx5 cells; assay: Fluorescent TUNEL assay (apoptosis) in MES-SA/Dx5 cells; assay type: cell-based, human; conditions: MES-SA/Dx5, 48 hours, 100 nM paclitaxel or DNA strand
Description: MCF7 and MES-SA/Dx5 cells were seeded on 0.17 mm thick coverslips in 12-well plates at a density of 2×10^5 cells/well for 24 hours prior to fluorescent TUNEL assay. Cells were treated with nothing, DNA-AuNPs at a DNA strand concentration of 100 nM (negative controls), 100 nM of free paclitaxel and compound 1 (positive controls), PTX-DNA-AuNPs at the equivalent paclitaxel concentrations of 50 nM and 100 nM (samples), respectively, for 48 hours. Live cells were rinsed and stained in accordance with instructions and materials for adherent cultured cells provided by Chemicon International ApopTag Plus Fluorescein In situ Apoptosis Detection Kit S7111 (Temecula, Calif.). ApopTag utilizes the terminal deoxynucleotidyl transferase (TdT) enzyme to amplify the fluorescein-conjugated anti-digoxigenin antibody, a secondary antibody towards digoxigenin-labeled nucleotide-labeled 30-OH termini on DNA fragments. Images were acquired on a Zeiss LSM 510 inverted microscope (computer controlled using Zeiss Zen software).
MCF7 or MES-SA/Dx5 cells were incubated with drug-free DNA-AuNPs, free paclitaxel, compound 1 and PTX-DNA@AuNPs, respectively, at varying concentrations for 48 hours.

[4] = tested on: MES-SA/Dx5 cells; assay: MTT assay (cytotoxicity) in paclitaxel-resistant MES-SA/Dx5 cells; assay type: cell-based, human
Description: as §1, §2

[5] = Dynamic light scattering (DLS) hydrodynamic size and dispersion in PBS; assay type: physicochemical; conditions: 25 μM paclitaxel in PBS, DLS and TEM
Description: PTX-DNA-AuNPs or DNA-AuNPs were resuspended in 200 uL PBS buffer with oligonucleotide strands of an equivalent concentration of 25 μM. Hydrodynamic size measurements were conducted using the Zetasizer Nano ZS (Malvern, Worcestershire, U.K.). The size measurements were performed at 25° C. at a 173° scattering angle in disposable micro cuvettes (minimum volume 40 μL, Malvern, Worcestershire, U.K.). The mean hydrodynamic diameter was determined by cumulative analysis. Transmission Electron Microscopy (TEM) was performed using a 200 kV Hitachi H-8100 TEM (EPIC, Northwestern University). Diluted PTX-DNA-AuNPs in deionized water were pipetted onto a commercial carbon TEM grid (Ted Pella Inc., Redding, Calif.). Upon air drying for 2 hours, samples were then observed within a Hitachi H-8100 TEM.

For CC(=O)O[C@H]1C(=O)[C@@]2(C)[C@H]([C@H](OC(=O)c3ccccc3)[C@]3(O)C[C@H](OC(=O)[C@H](O)[C@@H](NC(=O)c4ccccc4)c4ccccc4)C(C)=C1C3(C)C)[C@]1(OC(C)=O)CO[C@@H]1C[C@@H]2O [paclitaxel], the IC50 ([1]; MCF7, 12 h incubation, paclitaxel-equivalent concentration, read-out: IC50 (nM Paclitaxel)) was > 1000 nM, the IC50 ([1]; MCF7, 12 hour incubation, read-out: IC50 value) was > 1000 nM and the IC50 ([1]; MCF7, 48 h incubation, paclitaxel-equivalent concentration, read-out: IC50 (nM Paclitaxel)) was 193 nM. For the same molecule, the IC50 ([2]; SKOV-3, 12 h incubation) was 176 nM, the IC50 ([2]; SKOV-3, 48 h incubation) was 28.9 nM and the “TUNEL staining (apoptosis)” value [3] was “lower fraction of TUNEL-positive signals”. The viability at 0.2 µM ([4]; Homo sapiens, 48 h, MES-SA/Dx5, 2 days incubation, 200 nM drug concentration, % of control, read-out: cell viability) was 76%, the IC50 ([4]; Homo sapiens, MES-SA/Dx5, 12 h incubation, paclitaxel-equivalent concentration, read-out: IC50 (nM Paclitaxel)) was > 1000 nM and the IC50 ([4]; Homo sapiens, MES-SA/Dx5, 48 h incubation, paclitaxel-equivalent concentration, read-out: IC50 (nM Paclitaxel)) was > 1000 nM. The IC50 ([4]; Homo sapiens, resistant MES-SA/Dx5 cells, 12 hours and 48 hours, read-out: IC50 values) was > 1000 nM, the therapeutic activity ([4]; paclitaxel-resistant MES-SA/Dx5, 200 nM, 2 days) was “did not display any significant therapeutic activity” and the “dispersion in PBS” value [5] was “severe aggregation”.
